This passage reports BSI and logP results from ChEMBL document CHEMBL1128255, “Synthesis of 11 beta-[18F]fluoro-5 alpha-dihydrotestosterone and 11 beta-[18F]fluoro-19-nor-5 alpha-dihydrotestosterone: preparation via halofluorination-reduction, receptor binding, and tissue distribution” (J Med Chem, 1995).

As a reminder, the logP is the decadic logarithm of the partition coefficient of the neutral form, usually between octanol and water. Low readings indicate a more hydrophilic compound, high ones a more lipophilic compound.

SMILES strings stand for the structures.

Data set [1] deals with T1, Androgen receptor (Rattus norvegicus) (UniProt P15207).
T1 sequence (whole entry): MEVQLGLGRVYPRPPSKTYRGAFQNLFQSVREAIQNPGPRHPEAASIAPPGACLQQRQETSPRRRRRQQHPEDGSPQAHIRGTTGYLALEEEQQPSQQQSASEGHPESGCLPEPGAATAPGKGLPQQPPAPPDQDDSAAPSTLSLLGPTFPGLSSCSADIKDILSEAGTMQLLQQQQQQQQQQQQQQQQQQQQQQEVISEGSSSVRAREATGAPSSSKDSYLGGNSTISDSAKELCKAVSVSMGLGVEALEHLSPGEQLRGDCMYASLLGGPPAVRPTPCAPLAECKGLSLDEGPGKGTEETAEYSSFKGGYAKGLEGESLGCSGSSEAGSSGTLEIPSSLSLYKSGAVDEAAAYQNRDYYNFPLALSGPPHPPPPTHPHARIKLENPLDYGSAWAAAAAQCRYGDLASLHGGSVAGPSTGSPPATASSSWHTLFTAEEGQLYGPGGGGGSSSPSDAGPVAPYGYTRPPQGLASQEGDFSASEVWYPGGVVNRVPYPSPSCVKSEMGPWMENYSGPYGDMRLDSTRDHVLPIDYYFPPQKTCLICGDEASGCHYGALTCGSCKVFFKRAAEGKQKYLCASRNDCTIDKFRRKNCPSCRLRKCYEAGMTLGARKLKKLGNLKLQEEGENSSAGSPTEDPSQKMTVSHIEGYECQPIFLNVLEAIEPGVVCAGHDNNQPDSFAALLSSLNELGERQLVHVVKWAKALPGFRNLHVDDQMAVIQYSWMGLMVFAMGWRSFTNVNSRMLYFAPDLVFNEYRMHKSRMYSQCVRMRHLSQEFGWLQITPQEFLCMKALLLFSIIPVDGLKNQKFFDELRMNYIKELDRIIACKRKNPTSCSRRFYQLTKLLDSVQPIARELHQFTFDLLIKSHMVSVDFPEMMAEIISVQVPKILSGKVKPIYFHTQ
Description: Binding selectivity index (BSI) as ratio of RBA for androgen receptor to non-specific binding of R1881

Data set [2] is described as follows: physchem. The following applies: octanol/water.
Description: Partition coefficient (logP)

Regarding `C[C@]12CC[C@H]3[C@@H](CC[C@H]4CC(=O)CC[C@@H]43)[C@@H]1CC[C@@H]2O`, the BSI in data set [1] came out at 13.7. Also, the lipophilicity (logP) in data set [2] is 3.85.

`C[C@]12CC[C@H]3[C@@H](CCC4=CC(=O)CC[C@@]43C)[C@@H]1CC[C@@H]2O` [TESTOSTERONE] showed a logP in data set [2] of 3.45.

`C[C@]12CC[C@H]3[C@@H](CCC4=CC(=O)CC[C@@H]43)[C@@H]1CC[C@@H]2O` [NANDROLONE]: the logP in data set [2] amounted to 3.17.

In turn, `C[C@]1(O)CC[C@H]2[C@@H]3CCC4=CC(=O)CCC4=C3C=C[C@@]21C` [METRIBOLONE] showed a BSI in data set [1] of 100. The compound further displayed a logP in data set [2] of 3.29.
